# Data taken from patent publication US20230357253A1, “AGONISTS OF STIMULATOR OF INTERFERON GENES STING” (THE SCRIPPS RESEARCH INSTITUTE, priority 2020, published 2023).
# System: THP-1 Lucia ISG cells
# Test: ISRE-luciferase assay (ISG-LUC activation)
# Type: cell-based
# Settings: Homo sapiens, THP1-Lucia ISG, 24 hours, luciferase reporter
# Procedure: ISRE-luciferase assay. THP-1 Lucia ISG cells were resuspended in low-serum growth media (2% FBS) at a density of 5×10^5 cells/ml and treated with test article or vehicle (DMSO). 50 μL of cells were seeded into each well of a 384-well white greiner plates and incubated for 24 hours. To evaluate expression of the luciferase reporter, 30 μl of Quanti-luc (Invivogen) detection reagent was added to each well and luminescence was read using an Envision plate reader (Perkin Elmer) set with an integration time of 0.1 seconds. For each cell type, luminescence signals for test article samples were normalized to vehicle-treated samples and reported as relative light units (RLU).
row,EC50 [nM],Compound
1,50 to 500,"O=C(Nc1cc(CCCc2cc(NC(=O)c3ccc(-n4ccnc4)nn3)c(C(=O)O)cc2F)c(F)cc1C(=O)O)c1ccc(-n2ccnc2)nn1 [Compound 3, 4,4′-(propane-1,3-diyl)bis(2-(6-(1H-imidazol-1-yl)pyridazine-3-carbox-amido)-5-fluorobenzoic acid)]"
2,50 to 500,"O=C(Nc1cc(CCOc2cc(NC(=O)c3ccc(-c4cn[nH]c4)nn3)c(C(=O)O)cc2F)c(F)cc1C(=O)O)c1ccc(-c2cn[nH]c2)nn1 [Compound 4, 2-(6-(1H-pyrazol-4-yl)pyridazine-3-carboxamido)-4-(5-(6-(1H-pyrazol-4-yl)pyridazine-3-carboxamido)-4-carboxy-2-fluorophenethoxy)-5-fluorobenzoic acid]"
3,50 to 500,"CC(CCOc1cc(NC(=O)c2ccc(-n3ccnc3)nn2)c(C(=O)O)cc1F)Oc1cc(NC(=O)c2ccc(-n3ccnc3)nn2)c(C(=O)O)cc1F (stereo not drawn) [Compound 5, 4,4′-(butane-1,3-diylbis(oxy))bis(2-(6-(1H-imidazol-1-yl)pyridazine-3-carboxamido)-5-fluorobenzoic acid)]"
4,50 to 500,"COc1cc(C(=O)O)c(NC(=O)c2ccc(-n3ccnc3)nn2)cc1OCCc1cc(C(=O)O)c(NC(=O)c2ccc3nnnn3n2)cc1Cl [Compound 6, 2-(6-(1H-imidazol-1-yl)pyridazine-3-carboxamido)-4-(5-carboxy-2-chloro-4-(tetrazolo[1,5-b]pyridazine-6-carboxamido)phenethoxy)-5-methoxybenzoic acid]"
5,500 to 5000,"O=c1oc(-c2ccc(-n3ccnc3)nn2)nc2c(F)c(OCCCCOc3c(F)cc4c(=O)oc(-c5ccc(-n6ccnc6)nn5)nc4c3F)c(F)cc12 [Compound 9, 7,7′-(butane-1,4-diylbis(oxy))bis(2-(6-(1H-imidazol-1-yl)pyridazin-3-yl)-6,8-difluoro-4H-benzo[d][1,3]oxazin-4-one)]"
6,50 to 500,"O=C(Nc1cc(OCCCOc2cc(C(=O)O)c(NC(=O)c3ccc(-n4ccnc4)nn3)cc2F)c(F)cc1C(=O)O)c1ccc(-n2ccnc2)nn1 [Compound 10, 2-(6-(1H-imidazol-1-yl)pyridazine-3-carboxamido)-5-(3-(5-(6-(1H-imidazol-1-yl)pyridazine-3-carboxamido)-4-carboxy-2-fluorophenoxy)propoxy)-4-fluoro-benzoic acid]"
7,500 to 5000,O=C(Nc1cc(CCCc2ccc(NC(=O)c3ccc4nnnn4n3)c(C(=O)O)c2)ccc1C(=O)O)c1ccc2nnnn2n1 [Compound 13]
8,500 to 5000,O=C(Nc1cc(CCCc2ccc(C(=O)O)c(NC(=O)c3ccc4nnnn4n3)c2)ccc1C(=O)O)c1ccc2nnnn2n1 [Compound 14]
9,500 to 5000,O=C(Nc1cc(OCCCCOc2cc(NC(=O)c3ccc(-n4ccnc4)nn3)c(C(=O)O)cc2F)ccc1C(=O)O)c1ccc(-n2ccnc2)nn1 [Compound 19]
10,< 50,COC(=O)c1cc(Cl)c(OCCCCOc2cc(NC(=O)c3ccc(-n4ccnc4)nn3)c(C(=O)OC)cc2Cl)cc1NC(=O)c1ccc(-n2ccnc2)nn1 [Compound 23]
11,> 5000,O=C(Nc1cc(OCCOc2cc(C(=O)O)c(NC(=O)c3ccc4nnnn4n3)cc2F)ccc1C(=O)O)c1ccc2nnnn2n1 [Compound 26]
12,> 5000,O=C(Nc1cc(OCCCOc2cc(C(=O)O)c(NC(=O)c3ccc4nnnn4n3)cc2F)c(F)cc1C(=O)O)c1ccc2nnnn2n1 [Compound 33]
13,> 5000,COC(=O)c1cc(F)c(OCCCCOc2cc(NC(=O)c3ccc(-n4ccnc4)nn3)c(C(=O)OC)cc2F)cc1NC(=O)c1ccc(-n2ccnc2)nn1 [Compound 34]
14,> 5000,O=C(Nc1cc(OCCCCOc2ccc(C(=O)O)c(NC(=O)c3ccc(-n4ccnc4)nn3)c2)ccc1C(=O)O)c1ccc(O)nn1 [Compound 35]
15,< 50,COC(=O)c1cc(F)c(OCCCCOc2c(F)cc(C(=O)OC)c(NC(=O)c3ccc(-n4ccnc4)nn3)c2F)c(F)c1NC(=O)c1ccc(-n2ccnc2)nn1 [Compound 36]
16,50 to 500,O=C(Nc1c(C(=O)O)cc(F)c(OCCCCOc2c(F)cc(C(=O)O)c(NC(=O)c3ccc(-n4ccnc4)nn3)c2F)c1F)c1ccc(-n2ccnc2)nn1 [Compound 38]
17,> 5000,O=C(Nc1c(C(=O)O)cc(F)c(OCCCCOc2c(F)cc(C(=O)O)c(NC(=O)c3ccc(-n4ccnc4)nn3)c2F)c1F)c1ccc(O)nn1 [Compound 39]
18,< 50,O=c1oc(-c2ccc(-n3ccnc3)nn2)nc2cc(OCCCCOc3cc4nc(-c5ccc(-n6ccnc6)nn5)oc(=O)c4cc3F)c(F)cc12 [Compound 40]
19,< 50,COc1cc2c(=O)oc(-c3ccc(-n4ccnc4)nn3)nc2cc1OCCCCOc1cc2nc(-c3ccc(-n4ccnc4)nn3)oc(=O)c2cc1OC [Compound 41]
20,> 5000,O=C(Nc1cc(OCCCCOc2ccc(C(=O)O)c(NC(=O)c3ccc(-n4ccnc4)nn3)c2)ccc1C(=O)O)c1cccnn1 [Compound 44]
21,> 5000,O=C(Nc1cc(OCCCCOc2cnc(C(=O)O)c(NC(=O)c3ccc(-n4ccnc4)nn3)c2)cnc1C(=O)O)c1ccc(-n2ccnc2)nn1 [Compound 45]
22,< 50,COC(=O)c1cc(F)c(CCCc2cc(NC(=O)c3ccc(-n4ccnc4)nn3)c(C(=O)OC)cc2F)cc1NC(=O)c1ccc(-n2ccnc2)nn1 [Compound 51]
23,> 5000,COC(=O)c1ccc(CCCc2ccc(NC(=O)c3ccc(-n4ccnc4)nn3)c(C(=O)OC)c2)cc1NC(=O)c1ccc(-n2ccnc2)nn1 [Compound 53]
24,< 50,COC(=O)c1cc(F)c(CCCc2cc(NC(=O)c3ccc(-n4ccnc4)nn3)c(C(=O)OC)cc2OC)cc1NC(=O)c1ccc(-n2ccnc2)nn1 [Compound 54]

row,EC50 [nM],Compound
1,50 to 500,COc1cc(C(=O)O)c(NC(=O)c2ccc(-n3ccnc3)nn2)cc1CCCc1ccc(C(=O)O)c(NC(=O)c2ccc(-n3ccnc3)nn2)c1 [Compound 56]
2,50 to 500,COc1cc(C(=O)O)c(NC(=O)c2ccc(-n3ccnc3)nn2)cc1CCCc1cc(NC(=O)c2ccc(-n3ccnc3)nn2)c(C(=O)O)cc1F [Compound 59]
3,> 5000,O=C(Nc1cc(CCCc2ccc(C(=O)O)c(NC(=O)c3ccc4nnnn4n3)c2)ccc1C(=O)O)c1ccc(-n2ccnc2)nn1 [Compound 63]
4,50 to 500,O=C(Nc1cc(CCCc2cc(NC(=O)c3ccc(-n4ccnc4)nn3)c(C(=O)O)cc2Cl)ccc1C(=O)O)c1ccc(-n2ccnc2)nn1 [Compound 66]
5,50 to 500,O=C(Nc1cc(CCCc2cc(NC(=O)c3ccc4nnnn4n3)c(C(=O)O)cc2F)c(F)cc1C(=O)O)c1ccc(-n2ccnc2)nn1 [Compound 67]
6,50 to 500,O=C(Nc1cc(CCCc2cc(NC(=O)c3ccc(-n4ccnc4)nn3)c(C(=O)O)cc2F)ccc1C(=O)O)c1ccc(-n2ccnc2)nn1 [Compound 68]
7,500 to 5000,O=C(Nc1cc(CCCc2cc(C(=O)O)c(NC(=O)c3ccc(-n4ccnc4)nn3)cc2F)c(F)cc1C(=O)O)c1ccc(-n2ccnc2)nn1 [Compound 70]
8,50 to 500,O=C(Nc1cc(CCCc2cc(C(=O)O)c(NC(=O)c3ccc(-n4ccnc4)nn3)cc2F)ccc1C(=O)O)c1ccc(-n2ccnc2)nn1 [Compound 78]
9,500 to 5000,O=C(Nc1cc(CCCc2cc(C(=O)O)c(NC(=O)c3ccc4nnnn4n3)cc2F)c(F)cc1C(=O)O)c1ccc(-n2ccnc2)nn1 [Compound 90]
10,50 to 500,O=C(Nc1cc(F)c(CCCc2cc(NC(=O)c3ccc4nnnn4n3)c(C(=O)O)cc2F)cc1C(=O)O)c1ccc(-n2ccnc2)nn1 [Compound 94]
11,< 50,COC(=O)c1cc(Cl)c(CCCc2ccc(C(=O)OC)c(NC(=O)c3ccc4nnnn4n3)c2)cc1NC(=O)c1ccc(-n2ccnc2)nn1 [Compound 106]
12,< 50,COC(=O)c1cc(F)c(CCOc2cc(NC(=O)c3ccc4nnnn4n3)c(C(=O)OC)cc2F)cc1NC(=O)c1ccc(-n2ccnc2)nn1 [Compound 113]
13,500 to 5000,O=C(Nc1cc(CCCOc2cc(NC(=O)c3ccc(-n4ccnc4)nn3)c(C(=O)O)cc2F)c(F)cc1C(=O)O)c1ccc(-n2ccnc2)nn1 [Compound 125]
14,500 to 5000,O=C(Nc1cc(CCCOc2cc(NC(=O)c3ccc4nnnn4n3)c(C(=O)O)cc2F)c(F)cc1C(=O)O)c1ccc(-n2ccnc2)nn1 [Compound 126]
15,500 to 5000,O=C(Nc1cc(CCCCc2cc(C(=O)O)c(NC(=O)c3ccc(-n4ccnc4)nn3)cc2F)c(F)cc1C(=O)O)c1ccc(-n2ccnc2)nn1 [Compound 127]
16,50 to 500,COc1cc(C(=O)O)c(NC(=O)c2ccc(-n3ccnc3)nn2)cc1OCCc1cc(C(=O)O)c(NC(=O)c2ccc(-n3ccnc3)nn2)cc1C#N [Compound 130]
17,500 to 5000,COC(=O)Cc1cc(F)c(CCOc2cc(NC(=O)c3ccc(-n4ccnc4)nn3)c(C(=O)OC)cc2F)cc1NC(=O)c1ccc(-n2ccnc2)nn1 [Compound 131]
18,< 50,O=C(Nc1cc(CSCc2cc(NC(=O)c3ccc(-n4ccnc4)nn3)c(C(=O)O)cc2F)c(F)cc1C(=O)O)c1ccc(-n2ccnc2)nn1 [Compound 132]
19,50 to 500,COc1nc(C(=O)O)c(NC(=O)c2ccc(-n3ccnc3)nn2)cc1CCCc1cc(NC(=O)c2ccc(-n3ccnc3)nn2)c(C(=O)O)cc1F [Compound 134]
20,50 to 500,O=C(Nc1cc(CCOc2cc(C(=O)O)c(NC(=O)c3ccc(-n4ccnc4)nn3)cc2F)c(F)cc1C(=O)O)c1ccc(-n2ccnc2)nn1 [Compound 141]
21,50 to 500,O=C(Nc1cc(OCCc2cc(C(=O)O)c(NC(=O)c3ccc(-n4ccnc4)nn3)cc2F)c(F)cc1C(=O)O)c1ccc(-n2ccnc2)nn1 [Compound 144]
22,> 5000,COC(=O)c1cc(F)c(OCCc2c(OC)cc(NC(=O)c3ccc(-n4ccnc4)nn3)c(C(=O)OC)c2F)cc1NC(=O)c1ccc(-n2ccnc2)nn1 [Compound 150]
23,500 to 5000,COC(=O)c1cc(F)c(OCCc2cc(NC(=O)c3ccc(-n4ccnc4)nn3)c(C(O)C(=O)OC)cc2F)cc1NC(=O)c1ccc(-n2ccnc2)nn1 (stereo not drawn) [Compound 152]
24,< 50,COC(=O)c1cc(F)c(COCc2cc(NC(=O)c3ccc(-n4ccnc4)nn3)c(C(=O)OC)cc2F)cc1NC(=O)c1ccc(-n2ccnc2)nn1 [Compound 155]
